Measurements as given in PubChem BioAssay (NCI).
“And” between values parts separate entries of the source, which are not always exact repeats. Identical values can stand only once.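 Cultured in 96-well plates, cells were exposed to test compound for 48 hours across five concentrations. At the TGI there is no net growth.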

What was measured:
Assay in all cases: growth of human tumour cells (NCI), 48 h
[1] = system: SF-539 CNS
[2] = system: K-562 leukemia
[3] = system: BT-549 breast
[4] = system: HCT-15 colon
[5] = system: IGROV1 ovarian
[6] = system: HOP-62 NSCLC
[7] = system: NCI-H522 lung
[8] = system: 786-0 renal
[9] = system: SN12C renal
[10] = system: SK-MEL-28 melanoma

| Structure (SMILES) | TGI [1] | TGI [2] | TGI [3] | TGI [4] | TGI [5] | TGI [6] | TGI [7] | TGI [8] | TGI [9] | TGI [10] |
| --- | --- | --- | --- | --- | --- | --- | --- | --- | --- | --- |
| COc1cccc(N2C(=O)C3CC(CC(C)(C)C)c4c([nH]c5ccccc45)C3C2=O)c1 (stereo not given) | 8.42 µM | > 10 µM | > 10 µM | > 10 µM | > 10 µM | > 10 µM | > 10 µM | > 10 µM | > 10 µM | > 10 µM |
| CCCCC1Cc2cc(OC)ccc2-c2n1c1cc(OC)ccc1[n+]2C (stereo not given) (tested in a mixture with another compound) | > 44.9 µM | > 62.8 µM | 79 µM | > 56.7 µM | 6.61 µM | > 61.7 µM | 6.85 µM | > 100 µM | 7.97 µM | 25.8 µM |
| O=c1c2ccccc2n2cnc3ccc(NCCNCCO)c1c32 | 15.8 µM | > 51.1 µM | 16.6 µM | 13.7 µM | 9.59 µM | 10.9 µM | 6.2 µM | 10.4 µM | 17 µM | 11 µM |
| C=C1C(=O)O[C@@H]2[C@H]1C[C@H](I)[C@@]1(C)CC[C@H](O1)[C@](C)(I)CCCC(C)[C@@H]2O (stereo not given in full) | 4.25 µM | > 42.1 µM | 20.9 µM | 4.57 µM | 5.68 µM | 35.2 µM | 1.59 µM | 2.84 µM | 17.7 µM | 17.6 µM |
| C/C(=N\Nc1nc2ccccc2n1C)c1ccc2ccccc2n1 | > 34.3 µM | 10.6 µM | > 59.6 µM | > 75.7 µM | 2.74 µM | 18.2 µM | 19.6 µM | 11.5 µM | 16.2 µM | 37.3 µM |
| C=C(Cl)C(Cl)(CBr)CCC(Br)C(C)(C)Cl (stereo not given) | 1.12 µM and 2.69 µM and 3.68 µM | 24.4 µM and 10.8 µM and > 92.9 µM | 7.21 µM and 15.7 µM and 9.1 µM | 10.6 µM and 6.12 µM and 27.8 µM | 27.2 µM and 26.9 µM and 53.1 µM | 1.84 µM and 2.01 µM and 2.76 µM | 34.9 µM and 27.1 µM and 28.9 µM | 0.9 µM and 1.03 µM and 3.78 µM | 21.9 µM and 19.3 µM and 28.1 µM | 8.93 µM and 3.51 µM and 24.1 µM |
| Cn1c(SCc2c[nH]c3ccccc23)nnc1-c1ccc(Cl)cc1Cl | 17.7 µM | 24.9 µM | 87.5 µM | > 100 µM | 67.2 µM | 21.4 µM | 45.9 µM | 68.6 µM | 47.5 µM | > 100 µM |
| CCCCCC(/C=C/[C@@H]1[C@@H](C(O)CCCCCC(=O)OC)C(=O)C[C@H]1O[Si](C)(C)C(C)(C)C)OCOCCOC (stereo not given in full) | 31 µM | > 52 µM | 24.8 µM | 27.5 µM | 20.9 µM | 31.6 µM | 14.5 µM | 31.6 µM | 45.7 µM | 33.3 µM |
| COc1cc(S(=O)(=O)Nc2ccc(-c3csc(/N=C\c4cccs4)n3)cc2)ccc1Cl | > 100 µM | > 100 µM | > 100 µM | > 100 µM | > 100 µM | > 100 µM | > 100 µM | > 100 µM | > 100 µM | > 100 µM |
| OC1CSCCSCCCSCCSC1 | > 100 µM | > 100 µM | > 100 µM | > 100 µM | > 100 µM | > 100 µM | > 100 µM | > 100 µM | > 100 µM | > 100 µM |
| CN(CCCNC(=O)c1c2ccc3ccccc3c2nn1C)CCCNC(=O)c1c2ccc3ccccc3c2nn1C | 17.8 µM | 12 µM | 24 µM | 19.4 µM | 23.3 µM | 33.7 µM | 19.7 µM | 25.7 µM | 25.6 µM | 4.6 µM |
| CCOP(=O)(/C=C/n1cnc2c(=O)n(C(C)=O)c(N)nc21)OCC | > 100 µM | > 100 µM | > 100 µM | > 100 µM | > 100 µM | > 100 µM | > 100 µM | > 100 µM | > 100 µM | > 100 µM |
| Cn1c(=O)n2n(c1=O)C(S(=O)c1ccccc1)C2 (stereo not given) | > 100 µM | > 100 µM | > 100 µM | > 100 µM | > 100 µM | > 100 µM | > 100 µM | > 100 µM | > 100 µM | > 100 µM |
| CC(=O)N1c2ccccc2[C@H]2CCc3c([nH]c4ccccc34)[C@H]21 | 26.1 µM | 30.9 µM | 30 µM | 31.6 µM | 44.3 µM | 28.1 µM | 51.3 µM | 32.2 µM | 27.5 µM | 31.1 µM |
| O=C1c2ccccc2/C=C\C(c2ccccc2)=N/N1c1ccccc1Cl | > 100 µM | > 100 µM | 28 µM | > 100 µM | > 100 µM | 92.8 µM | 35.8 µM | > 100 µM | > 100 µM | > 100 µM |
| Clc1ccc(Cn2cc(/C=N/n3cnnc3)c3ccccc32)cc1 | > 100 µM | > 100 µM | > 100 µM | > 100 µM | > 100 µM | > 100 µM | > 100 µM | > 100 µM | > 100 µM | > 100 µM |
| O=C(O)c1ccccc1CC(Cc1ccccc1)C(=O)O (stereo not given) | > 100 µM | > 100 µM | > 100 µM | > 100 µM | > 100 µM | > 100 µM | > 100 µM | > 100 µM | > 100 µM | > 100 µM |
| CC(N)=O.[Cl][Pt][Cl].[NH-]c1ccn(C2OC(CO)C(O)C2O)c(=O)n1 (stereo not given) | > 100 µM | > 100 µM | > 100 µM | > 100 µM | > 100 µM | > 100 µM | > 100 µM | > 100 µM | > 100 µM | > 100 µM |
